Results reported in patent US20070149593A1 (Alcon, Inc., priority 2005, published 2007).

Tested on: FGFR
Experiment: Kinase inhibition in cell-free enzymatic assay, FGFR
Type: biochemical
Settings: 1 mM ATP

IC50: > 12.5 µM
Structure (SMILES): Cc1ccc(F)c(NC(=O)Nc2ccc(-c3cccc4[nH]nc(N)c34)cc2)c1 [RTKi, N-[4-(3-amino-1H-indazol-4-yl)phenyl]-N′-(2-fluoro-5-methylphenyl)urea]
